Data reported in patent US20240041042A1, “1-(PYRIDYL)-5-AZINYLPYRAZOLE DERIVATIVES, AND THEIR USE FOR CONTROL OF UNDESIRED PLANT GROWTH” (Bayer Aktiengesellschaft, priority 2020, published 2024).
Where two headings read alike, the source gives them in different places.

Assays:
Assay type in all cases: in vivo
Brassica napus (BRSNW) [1] = conditions: crop plant compatibility, in comparison to untreated controls
Method in brief: (§1)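 Crop injury rated visually in percent against untreated plants roughly 3 weeks after treatment (0% no effect, 100% plants dead). Compounds, as WP or EC with 0.5% additive in 600 l/ha water, were applied to the covering soil right after sowing; greenhouse growth. Suffixes a, b, c denote different dosages.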

[2] = test system: Triticum aestivum (TRZAS); conditions: pre-emergence, crop plant compatibility, in comparison to untreated controls
Method in brief: as §1

Zea mays (ZEAMX) [3] = conditions: pre-emergence, crop plant compatibility, in comparison to untreated controls
Method in brief: as §1

Oryza sativa (ORYSA) [4] = conditions: crop plant compatibility
Method in brief: (§2)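 Percent effect on the crop was judged by eye against untreated controls, where 0% means like control and 100% means dead plants. Plants had been sprayed post-emergence at the one-leaf stage and then kept under optimum greenhouse conditions for about 3 weeks.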

[5] = test system: Triticum aestivum (TRZAS); conditions: crop plant compatibility, effect vs untreated controls
Method in brief: as §2

Zea mays (ZEAMX) [6] = conditions: for Post-emergence action against ZEAMX in % (crop plant compatibility): 20 g/ha, effect in comparison to untreated controls; for Post-emergence action against ZEAMX in %: crop plant compatibility, effect vs untreated controls
Method in brief: as §2

Glycine max (GLXMA) [7] = experiment: Post-emergence crop plant compatibility, GLXMA; conditions: post-emergence, effect in comparison to untreated controls
Protocol: (§3) Seeds of monocotyledonous and dicotyledonous weeds and crop plants are placed in sandy loam in plastic or organic planting pots, covered with soil and cultivated in a greenhouse under controlled growth conditions. 2 to 3 weeks after sowing, the test plants are treated at the one-leaf stage. The compounds of the invention, formulated in the form of wettable powders (WP) or as emulsion concentrates (EC), are then sprayed onto the green parts of the plants as aqueous suspension or emulsion with addition of 0.5% additive at a water application rate of 600 l/ha (converted). After the test plants have been kept in the greenhouse under optimum growth conditions for about 3 weeks, the activity of the preparations is rated visually in comparison to untreated controls. For example, 100% activity=the plants have died, 0% activity=like control plants.
(§4) The observed effects on selected crop plants are reported here in comparison to the untreated controls (values in %). The appendices “a”, “b” and “c” give differentiation by dosage used with otherwise the same crop plants tested.

Brassica napus (BRSNW) [8] = experiment: Post-emergence crop plant compatibility, BRSNW; conditions: effect in comparison to untreated controls
Protocol: as §3, §4

[9] = test system: Echinochloa crus-galli (ECHCG); experiment: Post-emergence herbicidal action against ECHCG
Method in brief: (§5)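 Greenhouse plants sprayed at the one-leaf stage, 2–3 weeks after sowing, with WP or EC formulations plus 0.5% additive at 600 l/ha water. Activity rated visually after about 3 weeks versus untreated controls (100% = dead, 0% = like control), at 320 g/ha or lower.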

Setaria viridis (SETVI) [10] = experiment: Post-emergence herbicidal action against SETVI
Method in brief: as §5

[11] = test system: Verconica persica (VERPE); experiment: Post-emergence herbicidal action against VERPE; conditions: 320 g/ha, VERPE
Method in brief: as §5

Viola tricolor (VIOTR) [12] = experiment: Post-emergence herbicidal action against VIOTR; conditions: 320 g/ha
Method in brief: as §5

[13] = test system: Verconica persica (VERPE); experiment: Pre-emergence herbicidal action against VERPE
Method in brief: (§6)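 Application rates ran to 320 g/ha or lower, with several dosages tested on the same weeds. The compound, as wettable powder or emulsion concentrate, is sprayed pre-emergence onto soil over sown seeds; greenhouse growth follows, and effect is rated visually after roughly 3 weeks.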

Oryza sativa (ORYSA) [14] = conditions: pre-emergence, 80 g/ha, crop plant compatibility, in comparison to untreated controls
Method in brief: as §1

[15] = test system: Alopecurus myosuroides (ALOMY); experiment: Post-emergence herbicidal action against ALOMY; conditions: 80 g/ha, visual rating about 3 weeks after treatment vs untreated controls (100% = plants have died, 0% = like control plants)
Method in brief: as §5

[16] = test system: Digitaria sanguinalis (DIGSA); experiment: Pre-emergence herbicidal action against DIGSA
Method in brief: as §6

[17] = test system: Polygonum convolvulus (POLCO); experiment: Pre-emergence herbicidal action against POLCO
Method in brief: as §6

Viola tricolor (VIOTR) [18] = experiment: Pre-emergence herbicidal action against VIOTR
Method in brief: as §6

Glycine max (GLXMA) [19] = conditions: pre-emergence, crop plant compatibility, in comparison to untreated controls
Method in brief: as §1

[20] = test system: Alopecurus myosuroides (ALOMY); experiment: Pre-emergence herbicidal action against ALOMY; conditions: scored visually after about 3 weeks, 100% = plants have died
Method in brief: as §6

[21] = test system: Amaranthus retroflexus (AMARE); experiment: Pre-emergence herbicidal action against AMARE; conditions: visual scoring after about 3 weeks vs untreated controls
Method in brief: as §6

Avena fatua (AVEFA) = experiment: Pre-emergence herbicidal action against AVEFA; conditions: 320 g/ha, visual scoring after about 3 weeks vs untreated controls
Method in brief: as §6

[22] = test system: Echinochloa crus-galli (ECHCG); experiment: Pre-emergence herbicidal action against ECHCG; conditions: dosage 320 g/ha
Method in brief: as §6

Lolium rigidum (LOLRI) = experiment: Pre-emergence herbicidal action against LOLRI; conditions: dosage 320 g/ha
Method in brief: as §6

Setaria viridis (SETVI) [23] = experiment: Pre-emergence herbicidal action against SETVI; conditions: dosage 320 g/ha
Method in brief: as §6

[24] = 20 g/ha, effect vs untreated controls
[25] = 80 g/ha, effect in comparison to untreated controls
[26] = 320 g/ha, effect in comparison to untreated controls

| Pre-emergence action against BRSNW in % (Brassica napus (BRSNW) [1]; 80 g/ha) [%] | Pre-emergence action against TRZAS in % ([2]; 80 g/ha) [%] | Pre-emergence action against ZEAMX in % (Zea mays (ZEAMX) [3]; 80 g/ha) [%] | Pre-emergence action against ZEAMX in % (Zea mays (ZEAMX) [3]; 320 g/ha) [%] | Post-emergence action against ORYSA in % (Oryza sativa (ORYSA) [4]; [24]) [%] | Post-emergence action against ORYSA in % (Oryza sativa (ORYSA) [4]; [25]) [%] | Post-emergence action against TRZAS in % ([5]; 20 g/ha) [%] | Post-emergence action against TRZAS in % ([5]; 80 g/ha) [%] | Post-emergence action against ZEAMX in % (crop plant compatibility) (Zea mays (ZEAMX) [6]) [%] | Post-emergence action against ZEAMX in % (Zea mays (ZEAMX) [6]; 80 g/ha) [%] | Post-emergence action against GLXMA in % (Glycine max (GLXMA) [7]; 20 g/ha) [%] | Post-emergence action against GLXMA in % (Glycine max (GLXMA) [7]; 80 g/ha) [%] | Post-emergence action against BRSNW in % (Brassica napus (BRSNW) [8]; 20 g/ha) [%] | Post-emergence action against BRSNW in % (Brassica napus (BRSNW) [8]; 80 g/ha) [%] | Post-emergence action against ORYSA in % (Oryza sativa (ORYSA) [4]; [26]) [%] | SMILES | Post-emergence action against VIOTR in % (Viola tricolor (VIOTR) [12]) [%] | Pre-emergence action against POLCO in % ([17]; dosage 320 g/ha) [%] | Pre-emergence action against VIOTR in % (Viola tricolor (VIOTR) [18]; 320 g/ha, Viola tricolor) [%] | further results |
| --- | --- | --- | --- | --- | --- | --- | --- | --- | --- | --- | --- | --- | --- | --- | --- | --- | --- | --- | --- |
| 0 | 10 | 0 | 0 | 10 | 10 | 10 | 10 | 0 | 0 | 0 | 10 | 10 | 20 | – | C[C@@H](Oc1nn(-c2ncccc2F)c(-c2ccc(F)nc2)c1Br)C(=O)O [Example I-50] | – | – | – | Pre-emergence action against BRSNW in % (Brassica napus (BRSNW) [1]; 320 g/ha): 20%; Pre-emergence action against TRZAS in % ([2]; 320 g/ha): 10% |
| – | 10 | 10 | 20 | – | 0 | – | – | – | – | – | 0 | – | 20 | 10 | CCOC(=O)C(Oc1nn(-c2ccccn2)c(-c2ccc(F)nc2)c1Br)C(C)C (stereo not shown) [Example I-349] | 80 | 80 | 80 | Pre-emergence action against DIGSA in % ([16]; 80 g/ha, visual scoring after about 3 weeks vs untreated controls): 80%; Pre-emergence action against DIGSA in % ([16]; dosage 320 g/ha): 90%; Pre-emergence action against GLXMA in % (Glycine max (GLXMA) [19]; 80 g/ha): 0%; Pre-emergence action against GLXMA in % (Glycine max (GLXMA) [19]; 320 g/ha): 10% |
| – | – | 20 | – | 20 | 20 | 10 | – | 10 | 10 | – | – | 10 | – | – | CCOC(=O)CCNC(=O)COc1nn(-c2ncccc2F)c(-c2ccc(OC)nc2)c1Br [Example I-47] | – | 90 | 100 | Pre-emergence action against ALOMY ([20]; 80 g/ha): 90%; Pre-emergence action against ALOMY ([20]; 320 g/ha): 90%; Pre-emergence action against AMARE in % ([21]; 80 g/ha): 100%; Pre-emergence action against AMARE in % ([21]; 320 g/ha): 100%; Pre-emergence action against AVEFA in % (Avena fatua (AVEFA)): 90%; Pre-emergence action against ECHCG in % [22]: 90%; Pre-emergence action against LOLRI in % (Lolium rigidum (LOLRI)): 100%; Pre-emergence action against POLCO in % ([17]; dosage 80 g/ha): 80%; Pre-emergence action against SETVI in % (Setaria viridis (SETVI) [23]): 100%; Pre-emergence action against VERPE in % ([13]; dosage 320 g/ha): 90%; Pre-emergence action against VIOTR in % (Viola tricolor (VIOTR) [18]; dosage 80 g/ha): 100%; Post-emergence action against ECHCG in % ([9]; dosage 80 g/ha): 80%; Post-emergence action against SETVI in % (Setaria viridis (SETVI) [10]; dosage 80 g/ha): 90% |

More lines, now with the values behind:

| SMILES | Pre-emergence action against BRSNW in % (Brassica napus (BRSNW) [1]; 80 g/ha) [%] | Pre-emergence action against TRZAS in % ([2]; 80 g/ha) [%] | Pre-emergence action against ZEAMX in % (Zea mays (ZEAMX) [3]; 80 g/ha) [%] | Pre-emergence action against ZEAMX in % (Zea mays (ZEAMX) [3]; 320 g/ha) [%] | Post-emergence action against ORYSA in % (Oryza sativa (ORYSA) [4]; [24]) [%] | Post-emergence action against ORYSA in % (Oryza sativa (ORYSA) [4]; [25]) [%] | Post-emergence action against TRZAS in % ([5]; 20 g/ha) [%] | Post-emergence action against TRZAS in % ([5]; 80 g/ha) [%] | Post-emergence action against ZEAMX in % (crop plant compatibility) (Zea mays (ZEAMX) [6]) [%] | Post-emergence action against ZEAMX in % (Zea mays (ZEAMX) [6]; 80 g/ha) [%] | Post-emergence action against GLXMA in % (Glycine max (GLXMA) [7]; 20 g/ha) [%] | Post-emergence action against GLXMA in % (Glycine max (GLXMA) [7]; 80 g/ha) [%] | Post-emergence action against BRSNW in % (Brassica napus (BRSNW) [8]; 20 g/ha) [%] | Post-emergence action against BRSNW in % (Brassica napus (BRSNW) [8]; 80 g/ha) [%] | Post-emergence action against ORYSA in % (Oryza sativa (ORYSA) [4]; [26]) [%] | Post-emergence action against VIOTR in % (Viola tricolor (VIOTR) [12]) [%] | Pre-emergence action against POLCO in % ([17]; dosage 320 g/ha) [%] | Pre-emergence action against VIOTR in % (Viola tricolor (VIOTR) [18]; 320 g/ha, Viola tricolor) [%] | further results |
| --- | --- | --- | --- | --- | --- | --- | --- | --- | --- | --- | --- | --- | --- | --- | --- | --- | --- | --- | --- |
| COC(=O)CNC(=O)COc1nn(-c2cccnc2C)c(-c2cncc(F)c2)c1Br [II-37] | – | – | – | – | 0 | 0 | 0 | 0 | 0 | 0 | 0 | – | 0 | – | 0 | 80 | – | – | Post-emergence action against ECHCG in % ([9]; dosage 320 g/ha): 80%; Post-emergence action against SETVI in % (Setaria viridis (SETVI) [10]; dosage 320 g/ha): 80%; Post-emergence action against VERPE in % [11]: 90%; Post-emergence action against TRZAS in % ([5]; 320 g/ha): 0%; Post-emergence action against ZEAMX in % (Zea mays (ZEAMX) [6]; 320 g/ha): 0% |
| COC(=O)C1CCCN1C(=O)COc1nn(-c2ccccn2)c(-c2ccc(F)nc2)c1Br (stereo not shown) [Example I-110] | 20 | – | 10 | – | 0 | 10 | 0 | – | 10 | 10 | – | – | 10 | 20 | – | – | – | – | Pre-emergence action against VERPE in % ([13]; dosage 80 g/ha): 100%; Pre-emergence action against ORYSA in % (Oryza sativa (ORYSA) [14]): 10%; Post-emergence action against ALOMY in % [15]: 80% |
